Experimental findings from ChEMBL document CHEMBL1127387, “Synthesis and structure-activity relationships of a series of penicillin-derived HIV proteinase inhibitors: heterocyclic ring systems containing P1' and P2' substituents” (J Med Chem, 1994) are described below.

The subject of one assay is C8166. In words: Compound was tested for effective concentration against C8166 cell line. The class given is functional, cell-based. Particulars: Homo sapiens.
The next assay concerns MT4. In words: Compound was tested for effective concentration against MT-4 cell line. The class given is functional, cell-based. Particulars: Homo sapiens.
For assay [1], the target named is Human immunodeficiency virus type 1 protease (Human immunodeficiency virus 1, UniProt Q72874). In words: In vitro inhibitory activity against HIV proteinase.

`CC(C)(C)NC(=O)[C@@H]1C[C@@H]2CCCC[C@@H]2CN1C[C@@H](O)[C@H](Cc1ccccc1)NC(=O)[C@H](CC(N)=O)NC(=O)c1ccc2ccccc2n1`: the EC50 in the assay with C8166 and in the assay on MT4 was 2 nM throughout.
On to `CC(C)(C)NC(=O)[C@@H]1C[C@@H]2CCCC[C@@H]2CN1C[C@@H](O)CNC(=O)[C@@H]1N[C@@H](C(NC(=O)Cc2ccccc2)C(N)=O)SC1(C)C` (stereo partly specified), for which the IC50 (as a rule, the concentration that gives 50% inhibition) in assay [1] was 23 nM. Besides, the EC50 – broadly, the concentration giving half of the maximal effect – with C8166 stood at 120 nM; with MT4, 590 nM.
In assay [1], `CC(C)(C)NC(=O)[C@@H]1C[C@@H](O)CN1CC(O)CNC(=O)[C@@H]1N[C@@H](C(NC(=O)Cc2ccccc2)C(=O)NCc2ccccc2)SC1(C)C` (stereo partly specified) yielded an IC50 of 5100 nM.
In assay [1], `CCCCCCCNC(=O)C(NC(=O)Cc1ccccc1)[C@@H]1N[C@@H](C(=O)NCC(O)CN2C[C@H]3CCCC[C@H]3C[C@H]2C(=O)NC(C)(C)C)C(C)(C)S1` (stereo partly specified) yielded an IC50 of 86 nM. The same compound returned an EC50 in the assay on MT4 greater than 100000 nM.
As to `CC(C)(C)NC(=O)C1N(C[C@@H](O)CNC(=O)[C@@H]2N[C@@H](C(NC(=O)Cc3ccccc3)C(=O)NCc3ccccc3)SC2(C)C)C(C)(C)SC1(C)C` (stereo partly specified), the IC50 in assay [1] worked out at 190 nM. This counts as sub-micromolar.
Consider `CC(C)(C)NC(=O)[C@@H]1C[C@@H]2CCCC[C@@H]2CN1C[C@@H](O)CNC(=O)[C@@H]1N[C@@H](C(NC(=O)Cc2ccccc2)C(=O)NCc2ccccc2)SC1(C)C` (stereo partly specified), for which the IC50 in assay [1] came out at 23 nM. Also, the 50% effective concentration (EC50) in the assay on C8166 stood at 50 nM; in the assay on MT4 it was 350 nM.
On to `CC(C)(C)NC(=O)[C@@H]1C[C@@H](OC(C)(C)C)CN1CC(O)CNC(=O)[C@@H]1N[C@@H](C(NC(=O)Cc2ccccc2)C(=O)NCc2ccccc2)SC1(C)C` (stereo partly specified), for which half-maximal inhibition in assay [1] (IC50) was put at 1600 nM.
On the same count and under the same terms, in the case of `CC(C)(C)NC(=O)[C@H]1N(CC(O)CNC(=O)[C@@H]2N[C@@H]([C@H](NC(=O)Cc3ccccc3)C(=O)NCc3ccccc3)SC2(C)C)CSC1(C)C` (stereo partly specified) it was 21 nM; in that of `CC(C)(C)NC(=O)[C@@H]1CCCN1CC(O)CNC(=O)[C@@H]1N[C@@H](C(NC(=O)Cc2ccccc2)C(=O)NCc2ccccc2)SC1(C)C` (stereo partly specified) [listing 1 of 2 here], 1500 nM.
In assay [1], `COC(=O)C(NC(=O)Cc1ccccc1)[C@@H]1N[C@@H](C(=O)NC[C@H](O)CN2C[C@H]3CCCC[C@H]3C[C@H]2C(=O)NC(C)(C)C)C(C)(C)S1` (stereo partly specified) yielded an IC50 of 54 nM. In addition, the EC50 in the assay on MT4 worked out at 3900 nM.
As for `CC(C)(C)NC(=O)[C@@H]1CCCCN1C[C@H](O)CNC(=O)[C@@H]1N[C@@H](C(NC(=O)Cc2ccccc2)C(=O)NCc2ccccc2)SC1(C)C` (stereo partly specified), the IC50 in assay [1] was greater than 2200 nM.
Take `CC(C)(C)NC(=O)[C@@H]1C[C@H](OCc2ccccc2)CN1CC(O)CNC(=O)[C@@H]1N[C@@H](C(NC(=O)Cc2ccccc2)C(=O)NCc2ccccc2)SC1(C)C` (stereo partly specified): the IC50 in assay [1] came to 650 nM. In other words, the sub-micromolar range.
Same read-out and setting: in the case of `CC(C)(C)NC(=O)[C@@H]1C[C@@H]2CCCC[C@@H]2CN1C[C@H](O)CNC(=O)[C@@H]1N[C@@H](C(NC(=O)Cc2ccccc2)C(=O)NCC2CCCCC2)SC1(C)C` (stereo partly specified) it was 300 nM.
As for `CC(C)(C)NC(=O)[C@@H]1C[C@@H]2CCCC[C@@H]2CN1CC(O)CNC(=O)[C@@H]1N[C@@H](C(NC(=O)Cc2ccccc2)C(=O)NCCNC(=O)OC(C)(C)C)SC1(C)C` (stereo partly specified), the IC50 in assay [1] was determined as 160 nM. Moreover, the EC50 came out at 100 nM in the assay with C8166 and 52 nM in the assay with MT4.
In assay [1], `CC(C)(C)NC(=O)[C@H]1CN(C(=O)Oc2ccccc2)CCN1C[C@@H](O)CNC(=O)[C@@H]1N[C@@H](C(NC(=O)Cc2ccccc2)C(=O)NCc2ccccc2)SC1(C)C` (stereo partly specified) registered an IC50 of 82 nM.
With `CC(C)(C)NC(=O)[C@@H]1CCCN1CC(O)CNC(=O)[C@@H]1N[C@@H](C(NC(=O)Cc2ccccc2)C(=O)NCc2ccccc2)SC1(C)C` (stereo partly specified) [listing 2 of 2 here], the midpoint of inhibition in assay [1], the IC50, lay at 3100 nM.
On the same count and under the same terms, in the case of `CC(C)(C)NC(=O)[C@@H]1CN(C(=O)Oc2ccccc2)CCN1C[C@@H](O)CNC(=O)[C@@H]1N[C@@H](C(NC(=O)Cc2ccccc2)C(=O)NCc2ccccc2)SC1(C)C` (stereo partly specified) it was 58 nM; in that of `CC(C)(C)NC(=O)[C@@H]1CCCCN1C[C@@H](O)CNC(=O)[C@@H]1N[C@@H](C(NC(=O)Cc2ccccc2)C(=O)NCc2ccccc2)SC1(C)C` (stereo partly specified), 6500 nM.
`CCNC(=O)C(NC(=O)Cc1ccccc1)[C@@H]1N[C@@H](C(=O)NCC(O)CN2C[C@H]3CCCC[C@H]3C[C@H]2C(=O)NC(C)(C)C)C(C)(C)S1` (stereo partly specified) registered an IC50 in assay [1] of 31 nM. Besides, the EC50 in the assay on C8166 came to 740 nM; in the assay on MT4 it was 430 nM.
On to `CC(C)(C)NC(=O)C1N(C[C@H](O)CNC(=O)[C@@H]2N[C@@H](C(NC(=O)Cc3ccccc3)C(=O)NCc3ccccc3)SC2(C)C)C(C)(C)SC1(C)C` (stereo partly specified), for which the IC50 in assay [1] is 93 nM. That is a double-digit nanomolar value.
The same measure, in the same setting: in the case of `CC(C)(C)NC(=O)[C@@H]1CSCN1CC(O)CNC(=O)[C@@H]1N[C@@H](C(NC(=O)Cc2ccccc2)C(=O)NCc2ccccc2)SC1(C)C` (stereo partly specified) it was 450 nM; in that of `C[C@@H](C(=O)NC(C)(C)C)N(CC(O)CNC(=O)[C@@H]1N[C@@H](C(NC(=O)Cc2ccccc2)C(=O)NCc2ccccc2)SC1(C)C)CC1CCCCC1` (stereo partly specified), 6400 nM; in that of `CCO[C@@H]1C[C@@H](C(=O)NC(C)(C)C)N(C[C@@H](O)CNC(=O)[C@@H]2N[C@@H](C(NC(=O)Cc3ccccc3)C(=O)NCc3ccccc3)SC2(C)C)C1` (stereo partly specified), greater than 35000 nM.
`CC(C)(C)NC(=O)[C@@H]1C[C@@H]2CCCC[C@@H]2CN1CC(O)CNC(=O)[C@@H]1N[C@@H](C(NC(=O)Cc2ccccc2)C(=O)NCCNC(=O)CCCC[C@@H]2SC[C@@H]3NC(=O)N[C@@H]32)SC1(C)C` (stereo partly specified) registered an IC50 in assay [1] of 120 nM. For the same compound, the EC50 in the assay on MT4 was 18000 nM.
Compound `CCNC(=O)C(NC(=O)Cc1ccccc1)[C@@H]1N[C@@H](C(=O)NCC(O)CN(C)[C@@H](CC2CCCCC2)C(=O)NC(C)(C)C)C(C)(C)S1` (stereo partly specified) gave a concentration for half-maximal inhibition (IC50) in assay [1] of 710 nM.
Consider `CC(C)(C)NC(=O)[C@@H]1C[C@@H]2CCCC[C@@H]2CN1C[C@H](O)CNC(=O)[C@@H]1N[C@@H](C(NC(=O)Cc2ccccc2)C(=O)NCc2ccccc2)SC1(C)C` (stereo partly specified), for which half-maximal inhibition in assay [1] (IC50) was put at 160 nM. Moreover, in the assay on MT4, a half-maximal response (EC50) required 13600 nM.
For the compound `CN(C)c1ccc(CNC(=O)C(NC(=O)Cc2ccccc2)[C@@H]2N[C@@H](C(=O)NC[C@H](O)CN3C[C@H]4CCCC[C@H]4C[C@H]3C(=O)NC(C)(C)C)C(C)(C)S2)cc1` (stereo partly specified), the midpoint of inhibition in assay [1], the IC50, lay at 26 nM. Also, the EC50 with C8166 was 270 nM; in the assay with MT4, 520 nM.
On to `CC1(C)S[C@H](C(NC(=O)Cc2ccccc2)C(=O)NCc2ccccc2)N[C@H]1C(=O)N[C@H](Cc1ccccc1)[C@H](O)CC(=O)NCc1ccccc1` (stereo partly specified), for which, in assay [1], the midpoint of inhibition, the IC50, lay at 4600 nM.
Compound `CCNC(=O)C(NC(=O)Cc1ccccc1)[C@@H]1N[C@@H](C(=O)NCCNC(=O)[C@@H]2N[C@@H]([C@H](NC(=O)Cc3ccccc3)C(=O)NCC)SC2(C)C)C(C)(C)S1` (stereo partly specified) showed an IC50 in assay [1] of 5 nM. Further, it took 5400 nM to reach a half-maximal effect with MT4 (EC50).
In the case of `CCO[C@@H]1C[C@@H](C(=O)NC(C)(C)C)N(C[C@H](O)CNC(=O)[C@@H]2N[C@@H](C(NC(=O)Cc3ccccc3)C(=O)NCc3ccccc3)SC2(C)C)C1` (stereo partly specified), the 50% inhibitory concentration (IC50) in assay [1] is greater than 35000 nM.
